Experimental data reported in PubChem BioAssay (NCI).
Several values for one entry are separate records, joined by “and”; a condition that tells them apart may be missing. Equal values may be shown once.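 Following 48 hours of exposure in 96-well plates, responses at five concentrations were used to interpolate endpoints linearly. Abbreviation: GI50, concentration required for 50% inhibition of growth. Definition used: TGI = concentration required for complete inhibition of growth.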

Experiments:
Test in all cases: NCI tumour cell line growth inhibition, 48 h
EKVX NSCLC = system: EKVX NSCLC
RPMI-8226 leukemia = system: RPMI-8226 leukemia
SK-MEL-5 melanoma = system: SK-MEL-5 melanoma
IGROV1 ovarian = system: IGROV1 ovarian
NCI/ADR-RES ovarian = system: NCI/ADR-RES ovarian
UO-31 renal = system: UO-31 renal
HCT-15 colon = system: HCT-15 colon
SN12C renal = system: SN12C renal
SR leukemia = system: SR leukemia
NCI-H460 lung = system: NCI-H460 lung

## CC1(C)CCC[C@]2(C)c3cc(O)ccc3CC[C@@H]12
EKVX NSCLC
  GI50: 21.5 µM
  TGI: 36.7 µM
RPMI-8226 leukemia
  GI50: 12.3 µM
  TGI: 30.4 µM
SK-MEL-5 melanoma
  GI50: 11.3 µM
  TGI: 23.4 µM
IGROV1 ovarian
  GI50: 20.4 µM
  TGI: 38.8 µM
NCI/ADR-RES ovarian
  GI50: 16.5 µM
  TGI: 32.5 µM
UO-31 renal
  GI50: 19.9 µM
  TGI: 40.2 µM
HCT-15 colon
  GI50: 17.1 µM
  TGI: 35.2 µM
SN12C renal
  GI50: 17.5 µM
  TGI: 31.3 µM
SR leukemia
  GI50: 8.72 µM
  TGI: > 100 µM
NCI-H460 lung
  GI50: 18.6 µM
  TGI: 40.9 µM

## CCOc1ccc2nc(-c3cccc(OCC(=O)NC(C)C)c3)nc(Nc3ccc(-c4cn[nH]c4)cc3)c2c1
EKVX NSCLC
  GI50: 1.22 µM
  TGI: 8.34 µM
RPMI-8226 leukemia
  GI50: 0.232 µM
  TGI: 4.9 µM
SK-MEL-5 melanoma
  GI50: 1.17 µM
  TGI: 2.58 µM
IGROV1 ovarian
  GI50: 0.927 µM
  TGI: 7.4 µM
NCI/ADR-RES ovarian
  GI50: 1.92 µM
  TGI: 22.9 µM
UO-31 renal
  GI50: 0.344 µM
  TGI: 3.51 µM
HCT-15 colon
  GI50: 0.834 µM
  TGI: 3.69 µM
SN12C renal
  GI50: 1.06 µM
  TGI: 3.76 µM
SR leukemia
  GI50: 1.13 µM
  TGI: > 43 µM
NCI-H460 lung
  GI50: 0.34 µM
  TGI: 1.66 µM

## O=C1NC(=O)C(c2ccc(Cl)cc2)=C1Nc1ccc(Cl)c(C(=O)O)c1
EKVX NSCLC
  GI50: > 25 µM
  TGI: > 25 µM
RPMI-8226 leukemia
  GI50: > 25 µM
  TGI: > 25 µM
SK-MEL-5 melanoma
  GI50: > 25 µM
  TGI: > 25 µM
IGROV1 ovarian
  GI50: > 25 µM
  TGI: > 25 µM
NCI/ADR-RES ovarian
  GI50: > 25 µM
  TGI: > 25 µM
UO-31 renal
  GI50: > 25 µM
  TGI: > 25 µM
HCT-15 colon
  GI50: > 25 µM
  TGI: > 25 µM
SN12C renal
  GI50: > 25 µM
  TGI: > 25 µM
SR leukemia
  GI50: > 25 µM
  TGI: > 25 µM
NCI-H460 lung
  GI50: > 25 µM
  TGI: > 25 µM

## OC(C1CO1)C(O)C1CO1 (centres undefined)
EKVX NSCLC
  GI50: 175 µM
  TGI: 150 µM and 348 µM
RPMI-8226 leukemia
  GI50: 84 µM
  TGI: 150 µM and 861 µM
SK-MEL-5 melanoma
  GI50: 43.9 µM
  TGI: 85.6 µM and 164 µM
IGROV1 ovarian
  GI50: 129 µM
  TGI: 149 µM and 327 µM
NCI/ADR-RES ovarian
  GI50: 81 µM
  TGI: 123 µM and 320 µM
UO-31 renal
  GI50: 37 µM
  TGI: 112 µM and 199 µM
HCT-15 colon
  TGI: 131 µM and 406 µM
SN12C renal
  GI50: 13.9 µM
  TGI: 126 µM and 249 µM
SR leukemia
  TGI: 72.2 µM and 528 µM
NCI-H460 lung
  GI50: 2.14 µM
  TGI: 53.5 µM and 140 µM

## O=C(O)c1ccc2c3c(ncnc13)-c1ccccc1C2=O
EKVX NSCLC
  GI50: 51.6 µM
  TGI: > 100 µM
RPMI-8226 leukemia
  GI50: 51.3 µM
  TGI: > 88.7 µM
SK-MEL-5 melanoma
  GI50: 1.34 µM
  TGI: 2.65 µM
IGROV1 ovarian
  GI50: 43.9 µM
  TGI: > 100 µM
NCI/ADR-RES ovarian
  GI50: 42.8 µM
  TGI: > 100 µM
UO-31 renal
  GI50: 15.8 µM
  TGI: > 100 µM
HCT-15 colon
  GI50: 2.47 µM
  TGI: > 48 µM
SN12C renal
  GI50: 4.26 µM
  TGI: > 87.2 µM
SR leukemia
  GI50: 35.7 µM
  TGI: > 100 µM
NCI-H460 lung
  GI50: 2.43 µM
  TGI: 6.02 µM

## CCOC(=O)NC1=C(N2CC2)C(=O)C(NC(=O)OCC)=C(N2CC2)C1=O
EKVX NSCLC
  GI50: 24.2 µM
  TGI: 25 µM and 16.1 µM
RPMI-8226 leukemia
  GI50: 9.3 µM
  TGI: 19 µM and 20.2 µM and 10.6 µM
SK-MEL-5 melanoma
  GI50: 4.7 µM
  TGI: 15 µM and 9.97 µM and 7.95 µM
IGROV1 ovarian
  GI50: 8.21 µM and 7.5 µM
  TGI: 25 µM and 18.1 µM and 30.6 µM
NCI/ADR-RES ovarian
  GI50: 8.44 µM
  TGI: 25 µM and 16.8 µM
UO-31 renal
  GI50: 11.1 µM and 4 µM
  TGI: 25 µM and 21.7 µM and 22.4 µM
HCT-15 colon
  GI50: 11.4 µM and 10.2 µM
  TGI: 25 µM and 42.9 µM and 44.2 µM
SN12C renal
  GI50: 3.3 µM and 3.06 µM
  TGI: 25 µM and 14.2 µM and 7.15 µM
SR leukemia
  GI50: 0.389 µM
  TGI: 7.9 µM and 60.6 µM
NCI-H460 lung
  GI50: 0.505 µM and 0.721 µM
  TGI: 20 µM and 16.2 µM and 31 µM

## Fc1cccc(CSc2ncnc3c2ncn3C2CCCS2)c1 (centres undefined)
EKVX NSCLC
  TGI: 81.2 µM
RPMI-8226 leukemia
  TGI: 52.1 µM
SK-MEL-5 melanoma
  TGI: 22.5 µM
IGROV1 ovarian
  TGI: > 100 µM
NCI/ADR-RES ovarian
  TGI: 96.7 µM
UO-31 renal
  TGI: 36.2 µM
HCT-15 colon
  TGI: > 100 µM
SN12C renal
  TGI: 82 µM
SR leukemia
  TGI: 34 µM
NCI-H460 lung
  TGI: 22.7 µM

## NC(=S)N/N=C/c1ccc(O)cn1
EKVX NSCLC
  GI50: 82.5 µM
  TGI: 210 µM
RPMI-8226 leukemia
  GI50: 22.3 µM and 6.64 µM
  TGI: > 1500 µM and 662 µM
SK-MEL-5 melanoma
  GI50: 11.3 µM and 8.06 µM
IGROV1 ovarian
  GI50: 50.9 µM and 27.1 µM
  TGI: 916 µM and 827 µM
NCI/ADR-RES ovarian
  GI50: 3.09 µM
UO-31 renal
  GI50: 25.5 µM and 7.24 µM
  TGI: 66.7 µM and 42 µM and 136 µM
HCT-15 colon
  GI50: 22.1 µM and 13.3 µM
SN12C renal
  GI50: 8.5 µM and 7.93 µM
  TGI: 312 µM and 119 µM
SR leukemia
  TGI: > 323 µM
NCI-H460 lung
  GI50: 29.1 µM
  TGI: 595 µM

## CN1CCC(C(=O)Nc2n[nH]c3nc(-c4ccc(O)cc4)c(Br)cc23)CC1
EKVX NSCLC
  GI50: 6.62 µM and 2.51 µM
  TGI: > 25 µM
RPMI-8226 leukemia
  GI50: 9.78 µM and 24.4 µM
  TGI: > 25 µM
SK-MEL-5 melanoma
  GI50: 0.599 µM and 1.3 µM
  TGI: 2.3 µM and 4.14 µM
IGROV1 ovarian
  GI50: 5.13 µM and 6.36 µM
  TGI: > 25 µM
NCI/ADR-RES ovarian
  GI50: 24.9 µM and > 25 µM
  TGI: > 25 µM
UO-31 renal
  GI50: 6.85 µM and 7.86 µM
  TGI: > 22.4 µM
HCT-15 colon
  GI50: 6.77 µM and 9.83 µM
  TGI: > 25 µM
SN12C renal
  GI50: 1.76 µM and 4.18 µM
  TGI: > 25 µM
SR leukemia
  GI50: 0.701 µM and 0.306 µM
  TGI: > 25 µM
NCI-H460 lung
  GI50: 1.97 µM and 1.1 µM
  TGI: > 25 µM

## c1cncc(-c2nc3ccccc3s2)c1
EKVX NSCLC
  GI50: 41.2 µM
  TGI: > 100 µM
RPMI-8226 leukemia
  GI50: 99.4 µM
  TGI: > 100 µM
SK-MEL-5 melanoma
  GI50: > 100 µM
  TGI: > 100 µM
IGROV1 ovarian
  GI50: 42.6 µM
  TGI: > 100 µM
NCI/ADR-RES ovarian
  GI50: > 100 µM
  TGI: > 100 µM
UO-31 renal
  GI50: 29.5 µM
  TGI: > 100 µM
HCT-15 colon
  GI50: > 100 µM
  TGI: > 100 µM
SN12C renal
  GI50: > 100 µM
  TGI: > 100 µM
SR leukemia
  GI50: > 100 µM
  TGI: > 100 µM
NCI-H460 lung
  GI50: > 100 µM
  TGI: > 100 µM

## CC(C)[NH-].CC(C)[NH-].O.O.[Cl][Pt+2][Cl]
EKVX NSCLC
  GI50: 66.7 µM
  TGI: 203 µM
RPMI-8226 leukemia
  GI50: 38.1 µM
  TGI: 281 µM
SK-MEL-5 melanoma
  GI50: 21.2 µM
  TGI: 59.9 µM
IGROV1 ovarian
  GI50: 33.4 µM
  TGI: 132 µM
NCI/ADR-RES ovarian
  GI50: 60.9 µM
  TGI: 343 µM
UO-31 renal
  GI50: 147 µM
  TGI: 356 µM
HCT-15 colon
  GI50: 35.7 µM
  TGI: 208 µM
SN12C renal
  GI50: 35.9 µM
  TGI: 133 µM
SR leukemia
  GI50: 17.8 µM
  TGI: 53.5 µM
NCI-H460 lung
  GI50: 8.8 µM
  TGI: 62.3 µM

## Cc1cc(Oc2cnc(=O)[nH]c2)cs1
EKVX NSCLC
  TGI: > 100 µM
RPMI-8226 leukemia
  TGI: > 100 µM
SK-MEL-5 melanoma
  TGI: > 100 µM
IGROV1 ovarian
  TGI: > 100 µM
NCI/ADR-RES ovarian
  TGI: > 100 µM
UO-31 renal
  TGI: > 100 µM
HCT-15 colon
  TGI: > 100 µM
SN12C renal
  TGI: > 100 µM
SR leukemia
  TGI: > 100 µM
NCI-H460 lung
  TGI: > 100 µM
